Experimental data as given in patent publication US9562035B2, “Benzamide derivative useful as FASN inhibitors for the treatment of cancer” (Janssen Pharmaceutica NV, priority 2013, dated 2017).

Key:
[1] = target: T1, hFASN enzyme (full length) (Homo sapiens, UniProt P49327); assay: Fatty Acid Synthase (FASN) Inhibition Scintillation Proximity Assay; assay type: biochemical; conditions: for IC50: mean where tested more than once, ~ = standard error of pIC50 larger than 0.5; for inhibition at 10 µM: read-out: FASN % Effect @1E−05M
T1 construct: 10 μL hFASN enzyme (full length, 300 ng, purified in house); made in house
Method in brief: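 Purified full-length human FASN (300 ng) incubated 60 min at room temperature with NADPH, [3H]-acetyl-CoA and malonyl-CoA in 100 mM KH2PO4 pH 7.5, 1 mM DTT; compound at 30 μM to 0.01 μM. [3H]-palmitate captured by SPA imaging beads; IC50 from 4-parameter fit, reported as pIC50.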

[2] = target: T2, FASN Keto-reductase Domain (Homo sapiens, UniProt P49327); assay: Fatty Acid Synthase Keto-Reductase Domain (FASN KR) Inhibition; assay type: biochemical; conditions: mean where tested more than once; read-out: FASN K-R Domain pIC50 (converted)
T2 construct: 10 μL hFASN enzyme (full length, 300 ng, purified in house) and 360 μM NADPH; made in house
Method in brief: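 Full-length human FASN (300 ng) in 100 mM KH2PO4 pH 7.5 with 360 μM NADPH and 180 mM ethyl acetoacetate (stock); A340 decrease read over 20 min at room temperature.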

A2780 ovarian cells [3] = assay: A2780 Ovarian Cell Proliferation Assay in Lipid Reduced Medium, without Palmitate; assay type: cell-based; conditions: Homo sapiens, A2780; lipid reduced medium, without palmitate, 96 h, MTT; read-out: Proliferation A2780 w/o Palmitate pIC50 (converted)
Method in brief: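 A2780 cells were seeded in 10% FCS medium and switched next day to 10% lipid-reduced serum without palmitate. Compounds at 0.01–30 μM were added with 0.2% DMSO, 0.2% fatty-acid-free BSA and 0.25% ethanol final. After 96 h, MTT absorbance at 544 nm was normalized to plate controls, and IC50/pIC50 came from a 4-parameter logistic fit.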

A2780 ovarian cells [4] = assay: A2780 Ovarian Cell Proliferation Assay in Lipid Reduced Medium, with Palmitate (control); assay type: cell-based; conditions: Homo sapiens, A2780; lipid reduced medium, 25 μM palmitate, 96 h, MTT; read-out: Proliferation A2780 with Palmitate pIC50 (converted)
Method in brief: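 A2780 cells were seeded in RPMI1640 with 10% FCS, then switched next day to medium with 10% lipid-reduced serum. Compound was added with final 25 μM palmitate, 0.2% fatty-acid-free BSA and 0.2% DMSO, and incubated 96 h at 37 °C. Read-out was MTT absorbance at 544 nm; pIC50 = −log(IC50) from curve fit.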

T2 sequence (P49327 whole entry, the tested form may be a part): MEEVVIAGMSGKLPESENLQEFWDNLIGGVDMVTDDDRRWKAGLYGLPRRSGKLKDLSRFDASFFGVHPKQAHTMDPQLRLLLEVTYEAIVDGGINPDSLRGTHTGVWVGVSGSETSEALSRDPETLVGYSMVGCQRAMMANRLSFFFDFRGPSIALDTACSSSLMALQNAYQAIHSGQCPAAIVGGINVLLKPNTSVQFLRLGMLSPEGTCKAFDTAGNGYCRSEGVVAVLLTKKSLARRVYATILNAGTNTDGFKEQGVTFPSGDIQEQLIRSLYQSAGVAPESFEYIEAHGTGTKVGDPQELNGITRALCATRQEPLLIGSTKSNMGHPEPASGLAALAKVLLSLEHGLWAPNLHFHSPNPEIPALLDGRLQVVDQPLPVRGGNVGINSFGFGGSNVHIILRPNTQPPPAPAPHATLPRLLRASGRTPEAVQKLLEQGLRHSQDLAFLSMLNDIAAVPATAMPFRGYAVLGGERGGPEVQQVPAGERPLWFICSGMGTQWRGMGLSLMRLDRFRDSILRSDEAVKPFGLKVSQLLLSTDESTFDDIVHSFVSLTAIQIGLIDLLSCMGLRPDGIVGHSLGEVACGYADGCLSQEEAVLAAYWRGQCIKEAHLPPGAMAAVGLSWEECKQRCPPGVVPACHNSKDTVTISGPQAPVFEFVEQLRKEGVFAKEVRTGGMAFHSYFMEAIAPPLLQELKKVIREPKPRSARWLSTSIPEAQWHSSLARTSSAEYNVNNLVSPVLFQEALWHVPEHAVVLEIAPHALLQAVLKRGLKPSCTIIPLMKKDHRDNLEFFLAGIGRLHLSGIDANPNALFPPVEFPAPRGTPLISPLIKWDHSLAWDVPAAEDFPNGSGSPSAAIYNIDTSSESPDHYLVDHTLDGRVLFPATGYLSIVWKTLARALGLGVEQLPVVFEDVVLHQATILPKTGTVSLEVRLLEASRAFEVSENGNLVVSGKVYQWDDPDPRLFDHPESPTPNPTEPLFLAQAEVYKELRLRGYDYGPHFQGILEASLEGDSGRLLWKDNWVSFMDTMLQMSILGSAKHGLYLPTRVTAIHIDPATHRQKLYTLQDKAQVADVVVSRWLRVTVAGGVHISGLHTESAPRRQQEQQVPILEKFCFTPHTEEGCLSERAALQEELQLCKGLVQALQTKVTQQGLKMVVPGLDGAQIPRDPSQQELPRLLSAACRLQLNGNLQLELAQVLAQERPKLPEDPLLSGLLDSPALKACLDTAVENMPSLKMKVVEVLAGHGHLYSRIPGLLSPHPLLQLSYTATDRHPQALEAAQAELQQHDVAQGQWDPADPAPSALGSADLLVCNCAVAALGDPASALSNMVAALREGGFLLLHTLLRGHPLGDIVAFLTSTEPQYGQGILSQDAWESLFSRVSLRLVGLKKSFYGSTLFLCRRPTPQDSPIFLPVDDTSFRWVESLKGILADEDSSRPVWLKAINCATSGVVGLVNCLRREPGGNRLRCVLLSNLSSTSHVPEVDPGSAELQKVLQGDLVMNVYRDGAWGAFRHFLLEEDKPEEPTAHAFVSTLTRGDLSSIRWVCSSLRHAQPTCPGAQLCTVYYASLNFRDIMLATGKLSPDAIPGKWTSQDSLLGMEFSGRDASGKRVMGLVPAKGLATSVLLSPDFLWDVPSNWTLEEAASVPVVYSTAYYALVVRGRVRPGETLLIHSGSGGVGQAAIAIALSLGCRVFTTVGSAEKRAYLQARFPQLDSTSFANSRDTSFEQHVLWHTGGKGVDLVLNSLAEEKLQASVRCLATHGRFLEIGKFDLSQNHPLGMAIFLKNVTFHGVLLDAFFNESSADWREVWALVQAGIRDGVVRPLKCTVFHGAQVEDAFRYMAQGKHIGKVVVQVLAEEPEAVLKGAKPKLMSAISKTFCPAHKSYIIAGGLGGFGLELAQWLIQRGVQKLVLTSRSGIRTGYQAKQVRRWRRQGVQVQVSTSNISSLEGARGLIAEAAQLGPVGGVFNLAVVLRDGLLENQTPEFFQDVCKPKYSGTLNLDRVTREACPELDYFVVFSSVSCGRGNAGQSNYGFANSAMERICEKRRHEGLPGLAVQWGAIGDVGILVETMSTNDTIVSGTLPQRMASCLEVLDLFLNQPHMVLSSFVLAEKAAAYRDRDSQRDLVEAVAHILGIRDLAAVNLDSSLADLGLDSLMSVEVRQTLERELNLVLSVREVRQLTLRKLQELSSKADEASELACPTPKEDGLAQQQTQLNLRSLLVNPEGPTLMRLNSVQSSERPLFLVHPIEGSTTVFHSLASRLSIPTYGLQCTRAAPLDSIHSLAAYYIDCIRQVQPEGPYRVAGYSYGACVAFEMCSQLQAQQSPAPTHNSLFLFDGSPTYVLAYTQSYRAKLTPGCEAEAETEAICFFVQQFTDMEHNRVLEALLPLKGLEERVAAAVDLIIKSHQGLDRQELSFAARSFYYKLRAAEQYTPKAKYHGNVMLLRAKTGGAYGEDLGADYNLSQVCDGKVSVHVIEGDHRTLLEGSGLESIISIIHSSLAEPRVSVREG
T1 sequence (P49327 whole entry): as the sequence (P49327 whole entry, the tested form may be a part) above

Row | SMILES | IC50 [1] [nM] | inhibition at 10 µM [1] [%] | IC50 [2] [nM] | IC50 (A2780 ovarian cells [3]) [nM] | IC50 (A2780 ovarian cells [4]) [nM]
1 | COc1cc(Cl)cc(C(=O)Nc2cc(C(=O)N3CCC(c4ccc(-c5cnn(C)c5)cc4)CC3)ccc2C)c1 [Compound 128, 3-chloro-5-methoxy-N-(2-methyl-5-(4-(4-(1-methyl-1H-pyrazol-4-yl)phenyl)piperidine-1-carbonyl)phenyl)benzamide] | 257 | 84 | 288 | ~417 | 6170
2 | Cc1ccc(C(=O)N2CCC(c3ccc(-c4cnn(C)c4)cc3)CC2)cc1NC(=O)c1cccs1 [Compound 130, N-(2-methyl-5-(4-(4-(1-methyl-1H-pyrazol-4-yl)phenyl)piperidine-1-carbonyl)phenyl)thiophene-2-carboxamide] | 47.9 | 108 | 126 | ~123 | > 10000
3 | Cc1ccc(C(=O)N2CCC(c3ccc(-c4cnn(C)c4)cc3)CC2)cc1NC(=O)c1ccc(F)cc1F [Compound 131, 2,4-difluoro-N-(2-methyl-5-(4-(4-(1-methyl-1H-pyrazol-4-yl)phenyl)piperidine-1-carbonyl)phenyl)benzamide] | 51.3 | 109 | 107 | 126 | > 6170
4 | Cc1ccc(C(=O)N2CCC(c3ccc(-c4cnn(C)c4)cc3)CC2)cc1NC(=O)c1ccccc1C(F)(F)F [Compound 132, N-(2-methyl-5-(4-(4-(1-methyl-1H-pyrazol-4-yl)phenyl)piperidine-1-carbonyl)phenyl)-2-(trifluoromethyl)benzamide] | 120 | 97 | 204 | 339 | > 10000
5 | Cc1ccc(C(=O)N2CCC(c3ccc(-c4cnn(C)c4)cc3)CC2)cc1NC(=O)c1ccc(NC2CCC2)nc1 [Compound 134, 6-(cyclobutylamino)-N-(2-methyl-5-(4-(4-(1-methyl-1H-pyrazol-4-yl)phenyl)piperidine-1-carbonyl)phenyl)nicotinamide] | 57.5 | 111 | 52.5 | ~38 | > 10000
6 | Cc1ccc(C(=O)N2CCC(c3ccc(-c4cnn(C)c4)cc3)CC2)cc1NC(=O)c1cc(F)ccc1C [Compound 137, 5-fluoro-2-methyl-N-(2-methyl-5-(4-(4-(1-methyl-1H-pyrazol-4-yl)phenyl)piperidine-1-carbonyl)phenyl)benzamide] | 55 | 103 | 240 | 417 | > 10000
7 | Cc1ccc(C(=O)N2CCC(c3ccc(-c4cnn(C)c4)cc3)CC2)cc1NC(=O)c1ccc(C#N)cc1 [Compound 138, 4-cyano-N-(2-methyl-5-(4-(4-(1-methyl-1H-pyrazol-4-yl)phenyl)piperidine-1-carbonyl)phenyl)benzamide] | 91.2 | 107 | 195 | 331 | > 10000
8 | Cc1ccc(C(=O)N2CC(c3ccc(-c4cnn(C)c4)cc3)C2)cc1NC(=O)C1CC1 [Compound 142, N-(2-methyl-5-(3-(4-(1-methyl-1H-pyrazol-4-yl)phenyl)azetidine-1-carbonyl)phenyl)cyclopropanecarboxamide] | 46.8 | 106 | 110 | 107 | > 10000
9 | Cc1ccc(C(=O)N2CC(c3ccc(-c4cnn(C)c4)cc3)C2)cc1NC(=O)C1CCC1 [Compound 143, N-(2-methyl-5-(3-(4-(1-methyl-1H-pyrazol-4-yl)phenyl)azetidine-1-carbonyl)phenyl)cyclobutanecarboxamide] | 44.7 | 114 | 170 | 302 | > 10000

These reach a lower IC50 [1]. Values come first.

Row | IC50 [1] [nM] | inhibition at 10 µM [1] [%] | IC50 [2] [nM] | IC50 (A2780 ovarian cells [3]) [nM] | IC50 (A2780 ovarian cells [4]) [nM] | SMILES
10 | 37.2 | 96 | 74.1 | 91.2 | > 10000 | Cc1ccc(C(=O)N2CCC(c3ccc(-c4cnn(C)c4)cc3)CC2)cc1NC(=O)c1ccc2c(c1)OCO2 [Compound 133, N-(2-methyl-5-(4-(4-(1-methyl-1H-pyrazol-4-yl)phenyl)piperidine-1-carbonyl)phenyl)benzo[d][1,3]dioxole-5-carboxamide]
11 | 34.7 | 107 | 138 | 234 | > 10000 | Cc1ccc(C(=O)N2CCC(c3ccc(-c4cnn(C)c4)cc3)CC2)cc1NC(=O)c1ccc(F)cc1Cl [Compound 147, 2-chloro-4-fluoro-N-(2-methyl-5-(4-(4-(1-methyl-1H-pyrazol-4-yl)phenyl)piperidine-1-carbonyl)phenyl)benzamide]
12 | 31.6 | 101 | 95.5 | 97.7 | > 10000 | Cc1ccc(C(=O)N2CC(c3ccc(-c4cnn(C)c4)cc3)C2)cc1NC(=O)c1ccncc1 [Compound 139, N-(2-methyl-5-(3-(4-(1-methyl-1H-pyrazol-4-yl)phenyl)azetidine-1-carbonyl)phenyl)isonicotinamide]
13 | 30.9 | 105 | 69.2 | 1230 | ~5130 | Cc1ccc(C(=O)N2CCC(c3ccc(-c4cnn(C)c4)cc3)CC2)cc1NC(=O)c1cnc(Cl)nc1 [Compound 136, 2-chloro-N-(2-methyl-5-(4-(4-(1-methyl-1H-pyrazol-4-yl)phenyl)piperidine-1-carbonyl)phenyl)pyrimidine-5-carboxamide]
14 | 24 | 106 | 35.5 | ~12.3 | 7760 | Cc1ccc(C(=O)N2CCC(c3ccc(-c4cnn(C)c4)cc3)CC2)cc1NC(=O)c1cnc(N(C)C(C)C)nc1 [Compound 144, 2-(isopropyl(methyl)amino)-N-(2-methyl-5-(4-(4-(1-methyl-1H-pyrazol-4-yl)phenyl)piperidine-1-carbonyl)phenyl)pyrimidine-5-carboxamide]
15 | 22.9 | 104 | 34.7 | 21.4 | > 10000 | Cc1ccc(C(=O)N2CCC(c3ccc(-c4cnn(C)c4)cc3)CC2)cc1NC(=O)c1ccc(C#N)cc1F [Compound 129, 4-cyano-2-fluoro-N-(2-methyl-5-(4-(4-(1-methyl-1H-pyrazol-4-yl)phenyl)piperidine-1-carbonyl)phenyl)benzamide]
16 | 21.9 | 110 | 72.4 | 36.3 | 6610 | Cc1ccc(C(=O)N2CC(c3ccc(-c4cnn(C)c4)cc3)C2)cc1NC(=O)c1ccc(N2CCN(C)CC2)nc1 [Compound 141, N-(2-methyl-5-(3-(4-(1-methyl-1H-pyrazol-4-yl)phenyl)azetidine-1-carbonyl)phenyl)-6-(4-methylpiperazin-1-yl)nicotinamide]
17 | 21.9 | 103 | 33.9 | 69.2 | 10500 | Cc1ccc(C(=O)N2CCC(c3ccc(-c4cnn(C)c4)cc3)CC2)cc1NC(=O)c1ccc(C(F)(F)F)cc1 [Compound 145, N-(2-methyl-5-(4-(4-(1-methyl-1H-pyrazol-4-yl)phenyl)piperidine-1-carbonyl)phenyl)-4-(trifluoromethyl)benzamide]
18 | 19.1 | 110 | 32.4 | ~20.4 | > 10000 | Cc1ccc(C(=O)N2CCC(c3ccc(-c4cnn(C)c4)cc3)CC2)cc1NC(=O)c1cnc(NC(C)C)nc1 [Compound 146, 2-(isopropylamino)-N-(2-methyl-5-(4-(4-(1-methyl-1H-pyrazol-4-yl)phenyl)piperidine-1-carbonyl)phenyl)pyrimidine-5-carboxamide]
19 | 16.2 | 107 | 55 | 87.1 | > 10000 | COc1ccc(C(=O)Nc2cc(C(=O)N3CCC(c4ccc(-c5cnn(C)c5)cc4)CC3)ccc2C)cc1O [Compound 135, 3-hydroxy-4-methoxy-N-(2-methyl-5-(4-(4-(1-methyl-1H-pyrazol-4-yl)phenyl)piperidine-1-carbonyl)phenyl)benzamide]
20 | 15.8 | 114 | 39.8 | ~23.4 | 7760 | Cc1ccc(C(=O)N2CC(c3ccc(-c4cnn(C)c4)cc3)C2)cc1NC(=O)c1ccc(N(C)C2CCN(C)CC2)nc1 [Compound 140, 6-(methyl(1-methylpiperidin-4-yl)amino)-N-(2-methyl-5-(3-(4-(1-methyl-1H-pyrazol-4-yl)phenyl)azetidine-1-carbonyl)phenyl)nicotinamide]
